In patent EP2322514A1, “Homoglutamic acid and glutamic acid derivatives” (Bayer Schering Pharma Aktiengesellschaft, priority 2009, dated 2011):

Test system: NSCLC tumor cells (NCl-H460)
Assay: cell competition experiment: uptake of 3H-glutamic acid into tumor cells
Assay type: cell-based
Details: NCI-H460 cells, 10 min incubation with 1 µci 3H-glutamic acid in PBS-buffer, test compound 1 mM (excess)
Procedure: Figure 1: Examination of biological activity of (2S)-2-Amino-7-fluoro-4-phosphonoheptanoic acid in a cell competition experiment. (NCI-H460 cells, 10 min incubation with 1 µci 3H-glutamic acid in PBS-buffer, concentration of (2S)-2-Amino-7-fluoro-4-phosphonoheptanoic acid 1 mM).
The ability of compounds from the present invention to compete with uptake of glutamic acid into tumor cells was examined. Therefore, NSCLC tumor cells (NCl-H460) were co-incubated with 3H-labeled glutamic acid and (2S)-2-Amino-7-fluoro-4-phosphonoheptanoic acid. This compound was used in excess (1 mM) to the tracer 3H-glutamic acid.

N[C@@H](CC(CCCF)P(=O)(O)O)C(=O)O (stereo partly drawn) [(2S)-2-Amino-7-fluoro-4-phosphonoheptanoic acid]
uptake of 3H-glutamic acid: could be decreased
